# Reference: patent US20060069132A1, “Azolecarboxamide herbicides” (priority 2004, published 2006)
# How the values were obtained:
# lambsquarters = test: Test B pre-/postemergence herbicide test; assay type: in vivo, Chenopodium album; settings: for Lambsquarters plant response rating (0 to 100 scale) / Plant response rating, Lambsquarters: 0 = no effect, 100 = complete control, preemergence; for Lambsquarters plant response rating: postemergence
# Method in brief: (§1)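 Seeds were planted and treated preemergence with compounds formulated in a non-phytotoxic solvent mixture containing surfactant, while plants at the 1- to 4-leaf stage (2 to 18 cm) received postemergence sprays. Flooded paddy plants were grown to the 2-leaf stage. After 13 to 15 days in a greenhouse, injury was visually rated 0–100 against untreated controls.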
# rice [1] = test: Test B flooded paddy test; assay type: in vivo, Oryza sativa; settings: 1000 g ai/ha, scale 0 to 100 (0 no effect, 100 complete control)
# Method in brief: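 Visual ratings, 0 (no effect) to 100 (complete control), made versus controls after 13–15 d greenhouse. Paddy plants treated at 2-leaf stage; postemergence plants at 1- to 4-leaf stage, 2–18 cm tall.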
# Surinam grass = test: Test B pre-/postemergence herbicide test; assay type: in vivo, Urochloa decumbens; settings: for Surinam Grass plant response rating (0 to 100 scale) / Plant response rating, Surinam Grass: 0 = no effect, 100 = complete control, preemergence; for Surinam Grass plant response rating: postemergence
# Method in brief: as §1
# barnyardgrass [2] = test: Test B pre-/postemergence herbicide test; assay type: in vivo, Echinochloa crus-galli; settings: for Barnyardgrass plant response rating (0 to 100 scale) / Plant response rating, Barnyardgrass: 0 = no effect, 100 = complete control, preemergence; for Plant response rating, Barnyardgrass / Barnyardgrass plant response rating: visual rating; for Barnyardgrass plant response rating: postemergence, scale 0 (no effect) to 100 (complete control)
# Method in brief: (§2)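 Pre: seeds sown, then sprayed. Post: 1–4-leaf plants (2–18 cm) sprayed at the same time. Paddy: flooded, treated at 2-leaf stage. Formulation: non-phytotoxic solvent with surfactant. Greenhouse 13–15 days; visual 0–100 score relative to controls.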
# velvetleaf = test: Test B pre-/postemergence herbicide test; assay type: in vivo, Abutilon theophrasti; settings: for Velvetleaf plant response rating: postemergence
# Method in brief: as §1
# corn = test: Test B pre-/postemergence herbicide test; assay type: in vivo, Zea mays; settings: for Corn plant response rating (0 to 100 scale) / Plant response rating, Corn: 0 = no effect, 100 = complete control, preemergence; for Corn plant response rating: postemergence
# Method in brief: as §1
# blackgrass = test: Test B postemergence herbicide test; assay type: in vivo, Alopecurus myosuroides; settings: postemergence, visual rating, scale 0 (no effect) to 100 (complete control)
# Method in brief: (§3)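 Read-out: visual comparison with controls, scored 0 to 100, where 100 means complete control and 0 no effect. Formulated chemicals were applied postemergence to plants 2–18 cm tall (1- to 4-leaf), or to flooded-paddy plants at the 2-leaf stage, then held 13 to 15 days under glass.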
# wild oat = test: Test B postemergence herbicide test; assay type: in vivo, Avena fatua; settings: postemergence
# Method in brief: as §3
# [3] = tested on: small flower umbrella sedge; test: Test B flooded paddy test; assay type: in vivo, Cyperus difformis; settings: 1000 g ai/ha, scale 0 to 100 (0 no effect, 100 complete control)
# Method in brief: as §3
# ducksalad = test: Test B flooded paddy test; assay type: in vivo, Heteranthera limosa; settings: 1000 g ai/ha, scale 0 to 100 (0 no effect, 100 complete control)
# Method in brief: as §3
# large crabgrass = test: Test B pre-/postemergence herbicide test; assay type: in vivo, Digitaria sanguinalis; settings: for Crabgrass, Large plant response rating (0 to 100 scale) / Plant response rating, Crabgrass, Large: 0 = no effect, 100 = complete control, preemergence; for Crabgrass, Large plant response rating: postemergence
# Method in brief: as §1
# morningglory = test: Test B pre-/postemergence herbicide test; assay type: in vivo, Ipomoea coccinea; settings: for Morningglory plant response rating (0 to 100 scale) / Plant response rating, Morningglory: 0 = no effect, 100 = complete control, preemergence; for Morningglory plant response rating: postemergence
# Method in brief: as §2
# cocklebur = test: Test B pre-/postemergence herbicide test; assay type: in vivo, Xanthium strumarium; settings: for Cocklebur plant response rating (0 to 100 scale) / Plant response rating, Cocklebur: 0 = no effect, 100 = complete control, preemergence; for Plant response rating, Cocklebur / Cocklebur plant response rating: visual rating; for Cocklebur plant response rating: postemergence, scale 0 (no effect) to 100 (complete control)
# Method in brief: as §2
# barnyardgrass [4] = test: Test B flooded paddy test; assay type: in vivo, Echinochloa crus-galli; settings: 1000 g ai/ha, scale 0 to 100 (0 no effect, 100 complete control)
# Method in brief: as §3
# giant foxtail = test: Test B pre-/postemergence herbicide test; assay type: in vivo, Setaria faberi; settings: for Foxtail, Giant plant response rating (0 to 100 scale) / Plant response rating, Foxtail, Giant: 0 = no effect, 100 = complete control, preemergence; for Foxtail, Giant plant response rating: postemergence
# Method in brief: as §1
# rice [5] = test: Test B pre-/postemergence herbicide test; assay type: in vivo, Oryza sativa; settings: 0 = no effect, 100 = complete control, preemergence; for Rice plant response rating (0 to 100 scale): 125 g ai/ha; for Plant response rating, Rice: 500 g ai/ha, visual rating
# Method in brief: as §1
# wheat = test: Test B postemergence herbicide test; assay type: in vivo, Triticum aestivum; design: key to Wheat plant response rating: 0 = no effect, 100 = complete control; settings: postemergence
# Method in brief: as §3
# pigweed = test: Test B pre-/postemergence herbicide test; assay type: in vivo, Amaranthus retroflexus; settings: for Pigweed plant response rating (0 to 100 scale) / Plant response rating, Pigweed: 0 = no effect, 100 = complete control, preemergence; for Pigweed plant response rating: postemergence
# Method in brief: as §1
# [6] = 125 g ai/ha, visual rating, scale 0 (no effect) to 100 (complete control)
# [7] = 500 g ai/ha, visual rating, scale 0 (no effect) to 100 (complete control)
# [8] = 125 g ai/ha, 0 = no effect, 100 = complete control, preemergence
# [9] = 500 g ai/ha, scale 0 to 100, 0 is no effect, 100 is complete control
compound,measurement,setting,value
C=CCNC(=O)c1ccc(F)c(NC(=O)c2sc(CC)nc2C(C)(C)C)c1 [Compound 237],Lambsquarters plant response rating (0 to 100 scale),lambsquarters; 125 g ai/ha,70
same,"Plant response rating, Lambsquarters","lambsquarters; 500 g ai/ha, visual rating",90
same,Lambsquarters plant response rating,lambsquarters; [6],60
same,Lambsquarters plant response rating,lambsquarters; [7],70
same,Rice plant response rating,rice [1],50
same,Surinam Grass plant response rating (0 to 100 scale),Surinam grass; 125 g ai/ha,10
same,"Plant response rating, Surinam Grass","Surinam grass; 500 g ai/ha, visual rating",30
same,Surinam Grass plant response rating,Surinam grass; [6],20
same,Surinam Grass plant response rating,Surinam grass; [7],20
same,Barnyardgrass plant response rating (0 to 100 scale),barnyardgrass [2]; 125 g ai/ha,20
same,"Plant response rating, Barnyardgrass",barnyardgrass [2]; 500 g ai/ha,50
same,Velvetleaf plant response rating (0 to 100 scale),velvetleaf; [8],30
same,"Plant response rating, Velvetleaf","velvetleaf; 500 g ai/ha, visual rating, 0 = no effect, 100 = complete control, preemergence",60
same,Velvetleaf plant response rating,velvetleaf; [6],30
same,Velvetleaf plant response rating,velvetleaf; [7],50
same,Corn plant response rating (0 to 100 scale),corn; 125 g ai/ha,0
same,"Plant response rating, Corn","corn; 500 g ai/ha, visual rating",20
same,Corn plant response rating,corn; [6],20
same,Corn plant response rating,corn; [7],40
same,Blackgrass plant response rating,blackgrass; 125 g ai/ha,0
same,Blackgrass plant response rating,blackgrass; 500 g ai/ha,10
same,"Oat, Wild plant response rating",wild oat; [6],0
same,"Oat, Wild plant response rating",wild oat; [7],20
same,"Sedge, Umbrella plant response rating",[3],40
same,Ducksalad plant response rating,ducksalad,80
same,"Crabgrass, Large plant response rating (0 to 100 scale)",large crabgrass; 125 g ai/ha,30
same,"Plant response rating, Crabgrass, Large","large crabgrass; 500 g ai/ha, visual rating",90
same,"Crabgrass, Large plant response rating",large crabgrass; [6],10
same,"Crabgrass, Large plant response rating",large crabgrass; [7],20
same,Morningglory plant response rating (0 to 100 scale),morningglory; 125 g ai/ha,0
same,"Plant response rating, Morningglory","morningglory; 500 g ai/ha, visual rating",20
same,Morningglory plant response rating,morningglory; [6],20
same,Morningglory plant response rating,morningglory; [7],60
same,Cocklebur plant response rating (0 to 100 scale),cocklebur; 125 g ai/ha,0
same,"Plant response rating, Cocklebur",cocklebur; 500 g ai/ha,0
same,Cocklebur plant response rating,cocklebur; 125 g ai/ha,10
same,Cocklebur plant response rating,cocklebur; 500 g ai/ha,40
same,Barnyardgrass plant response rating,barnyardgrass [4],60
same,"Foxtail, Giant plant response rating (0 to 100 scale)",giant foxtail; 125 g ai/ha,0
same,"Plant response rating, Foxtail, Giant","giant foxtail; 500 g ai/ha, visual rating",40
same,"Foxtail, Giant plant response rating",giant foxtail; [6],10
same,"Foxtail, Giant plant response rating",giant foxtail; [7],20
same,Rice plant response rating (0 to 100 scale),rice [5],0
same,"Plant response rating, Rice",rice [5],30
same,Wheat plant response rating,wheat; [6],10
same,Wheat plant response rating,wheat; [7],20
same,Pigweed plant response rating (0 to 100 scale),pigweed; 125 g ai/ha,20
same,"Plant response rating, Pigweed","pigweed; 500 g ai/ha, visual rating",70
same,Pigweed plant response rating,pigweed; [6],30
same,Pigweed plant response rating,pigweed; [7],60
CCc1nn(C(C)(C)C)cc1C(=O)Nc1ccc(F)c(C(=O)N(CC)CC)c1 [Compound 240],Lambsquarters plant response rating (0 to 100 scale),lambsquarters; 125 g ai/ha,0
same,"Plant response rating, Lambsquarters","lambsquarters; 500 g ai/ha, visual rating",80
same,Lambsquarters plant response rating,lambsquarters; [6],20
same,Lambsquarters plant response rating,lambsquarters; [9],50
same,Rice plant response rating,rice [1],0
same,Surinam Grass plant response rating (0 to 100 scale),Surinam grass; 125 g ai/ha,0
same,"Plant response rating, Surinam Grass","Surinam grass; 500 g ai/ha, visual rating",20
same,Surinam Grass plant response rating,Surinam grass; [6],0
same,Surinam Grass plant response rating,Surinam grass; [9],20
same,Barnyardgrass plant response rating (0 to 100 scale),barnyardgrass [2]; 125 g ai/ha,0
same,"Plant response rating, Barnyardgrass",barnyardgrass [2]; 500 g ai/ha,70
same,Barnyardgrass plant response rating,barnyardgrass [2]; 125 g ai/ha,0
same,Barnyardgrass plant response rating,barnyardgrass [2]; 500 g ai/ha,0
same,Velvetleaf plant response rating (0 to 100 scale),velvetleaf; [8],0
same,Velvetleaf plant response rating,velvetleaf; [6],0
same,Velvetleaf plant response rating,velvetleaf; [9],10
same,Corn plant response rating (0 to 100 scale),corn; 125 g ai/ha,0
same,"Plant response rating, Corn","corn; 500 g ai/ha, visual rating",0
same,Corn plant response rating,corn; [6],0
same,Corn plant response rating,corn; [9],10
same,Blackgrass plant response rating,blackgrass; 125 g ai/ha,0
same,Blackgrass plant response rating,blackgrass; 500 g ai/ha,10
same,"Oat, Wild plant response rating",wild oat; [6],0
same,"Oat, Wild plant response rating",wild oat; [9],0
same,"Sedge, Umbrella plant response rating",[3],60
same,Ducksalad plant response rating,ducksalad,0
same,"Crabgrass, Large plant response rating (0 to 100 scale)",large crabgrass; 125 g ai/ha,20
same,"Plant response rating, Crabgrass, Large","large crabgrass; 500 g ai/ha, visual rating",100
same,"Crabgrass, Large plant response rating",large crabgrass; [6],0
same,"Crabgrass, Large plant response rating",large crabgrass; [9],20
same,Morningglory plant response rating (0 to 100 scale),morningglory; 125 g ai/ha,0
same,"Plant response rating, Morningglory","morningglory; 500 g ai/ha, visual rating",0
same,Morningglory plant response rating,morningglory; [6],20
same,Morningglory plant response rating,morningglory; [9],30
same,Cocklebur plant response rating (0 to 100 scale),cocklebur; 125 g ai/ha,0
same,"Plant response rating, Cocklebur",cocklebur; 500 g ai/ha,0
same,Cocklebur plant response rating,cocklebur; 125 g ai/ha,0
same,Cocklebur plant response rating,cocklebur; 500 g ai/ha,20
same,Barnyardgrass plant response rating,barnyardgrass [4],0
same,"Foxtail, Giant plant response rating (0 to 100 scale)",giant foxtail; 125 g ai/ha,0
same,"Plant response rating, Foxtail, Giant","giant foxtail; 500 g ai/ha, visual rating",80
same,"Foxtail, Giant plant response rating",giant foxtail; [6],0
same,"Foxtail, Giant plant response rating",giant foxtail; [9],0
same,Rice plant response rating (0 to 100 scale),rice [5],0
same,"Plant response rating, Rice",rice [5],0
same,Wheat plant response rating,wheat; [6],0
same,Wheat plant response rating,wheat; [9],20
same,Pigweed plant response rating (0 to 100 scale),pigweed; 125 g ai/ha,0
same,"Plant response rating, Pigweed","pigweed; 500 g ai/ha, visual rating",100
same,Pigweed plant response rating,pigweed; [6],0
same,Pigweed plant response rating,pigweed; [9],50
